Test results from US10639372B2, “Nucleic acid, medical nanoparticle, and pharmaceutical composition thereof” (Chung Yuan Christian University, priority 2016, dated 2020).

Assays:
SCC4 cells = assay: Cytotoxicity test (MTT test) on SCC4 cells; assay type: cell-based, human; details: SCC4 cells treated 48 hours, MTT survival rate
Method: (§1) The human oral cancer cells used in the Examples SCC4 and SAS are cultivated in a Dulbecco's Modified Eagle's medium (DMEM) cell culture having 10% fetal bovine serum (FBS). The cells are cultivated in an environment having 5% carbon dioxide in 37 degree Celsius. When enough cells are cultivated, the subsequent analysis and tests are performed.
(§2) The MTT reagent (namely, 3-(4,5-dimethylthiazol)-2,5-diphenyltetrazoliumbromide) is a yellow dye. After the MTT reagents are reacted with succinatedehydrogenase-ubiquinone (SDH) in the mitochondrion and cytochrome C, water insoluble blue-purple crystals are formed. After the crystals are dissolved in DMSO solution, the cell survival condition may be determined by the absorbance of the solution at 570 nm, so that the survival ratio of the cells can be calculated.
(§3) DMEM cell culture without serum are provided for preparing MTT solution having a concentration of 5 milligrams per milliliter. […]
(§4) The SCC4 or SAS cells are planted in a 48-well plate (each having 1×10^4 cells). […] And then, the absorbance of the supernatant at 570 nm can be obtained by an enzyme-linked immunosorbent assay (ELISA) reader (model: VersaMax™ Microplate Reader, Molecular devices, Sunnyvale, USA).

SAS cells = assay: Cytotoxicity test (MTT test) on SAS cells; assay type: cell-based, human; details: SAS cells treated 48 hours, MTT survival rate
Method: as §1, §2, §3, §4

Row | Substance | IC50 for SCC4 cells (SCC4 cells) [microgram per milliliter] | IC50 for SAS cells (SAS cells) [microgram per milliliter]
1 | photosan | 2.4 | 1.75
2 | pyropheophorbide-phosphatidic acid [pyro-PA] | 0.8 | 0.1
